Experimental data taken from patent publication US20050209278A1, “Piperidinyl- and piperazinyl-sulfonylmethyl hydroxamic acids and their use as protease inhibitors” (priority 2002, published 2005).
Counter-ions that a name gives are not always drawn. Like-named read-outs stand apart in the source and are kept apart here.

Legend:
Format in all cases: biochemical
[1] = target: T1, MMP-1 (Homo sapiens, UniProt P03956); assay: MMP-1 inhibition (in vitro Ki)
T1 construct: made in house; host or cells: MMP-1-transfected HT-1080 cells (spent media)
T1 sequence (P03956 100-469): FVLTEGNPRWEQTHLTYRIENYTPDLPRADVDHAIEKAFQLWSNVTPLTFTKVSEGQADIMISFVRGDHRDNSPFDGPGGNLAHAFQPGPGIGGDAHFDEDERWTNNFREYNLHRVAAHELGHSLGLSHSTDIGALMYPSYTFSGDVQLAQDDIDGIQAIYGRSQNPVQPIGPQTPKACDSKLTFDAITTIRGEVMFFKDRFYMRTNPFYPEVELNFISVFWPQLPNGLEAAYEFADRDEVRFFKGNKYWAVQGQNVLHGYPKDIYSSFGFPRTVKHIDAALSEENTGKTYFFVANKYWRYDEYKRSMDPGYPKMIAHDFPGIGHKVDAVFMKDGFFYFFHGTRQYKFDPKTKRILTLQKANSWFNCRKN

[2] = target: T2, MMP-13 (Homo sapiens, UniProt P45452); assay: MMP-13 inhibition (in vitro Ki)
T2 construct: made in house; host or cells: baculovirus / insect cells

[3] = target: T3, MMP-2 (Homo sapiens, UniProt P08253); assay: MMP-2 inhibition (in vitro Ki)
T3 construct: made in house; host or cells: MMP-2-transfected p2AHT2 cells
T3 sequence (P08253 110-660): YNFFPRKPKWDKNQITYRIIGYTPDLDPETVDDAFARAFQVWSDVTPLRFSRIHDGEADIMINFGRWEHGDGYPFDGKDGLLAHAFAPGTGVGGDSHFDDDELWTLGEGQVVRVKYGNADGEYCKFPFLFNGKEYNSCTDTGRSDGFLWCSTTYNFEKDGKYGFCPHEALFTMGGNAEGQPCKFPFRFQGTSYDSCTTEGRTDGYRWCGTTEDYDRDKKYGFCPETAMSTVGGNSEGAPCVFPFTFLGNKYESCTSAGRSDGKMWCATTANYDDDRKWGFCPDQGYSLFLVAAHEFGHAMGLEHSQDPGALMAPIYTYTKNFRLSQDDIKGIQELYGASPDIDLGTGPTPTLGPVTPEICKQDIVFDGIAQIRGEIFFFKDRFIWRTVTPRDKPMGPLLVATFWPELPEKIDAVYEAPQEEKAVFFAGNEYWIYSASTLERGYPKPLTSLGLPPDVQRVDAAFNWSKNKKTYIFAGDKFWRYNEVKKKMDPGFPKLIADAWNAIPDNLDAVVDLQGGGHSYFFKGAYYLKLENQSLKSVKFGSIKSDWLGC

[4] = target: T4, MMP-9 (Homo sapiens, UniProt P14780); assay: MMP-9 inhibition (in vitro Ki)
T4 construct: made in house; host or cells: MMP-9-transfected HT1080 cells (spent media)

[5] = target: T5, MMP-14 (Homo sapiens, UniProt P50281); assay: MMP-14 inhibition (in vitro Ki)
T5 construct: The catalytic domain enzyme was expressed in E. coli inclusion bodies, solubilized in urea; made in house

[6] = target: T2, MMP-13; assay: In vitro MMP inhibition, Ki determination (fluorogenic substrate II); conditions: read-out: MMP-13 Ki
Method: (§1) Several hydroxamic acids and salts thereof were analyzed in in vitro assays to determine their ability to inhibit the MMP cleavage of peptide substrates. […] and IC50 constants were calculated from the assayed hydroxamic acid-MMP interactions.
(§2) Human recombinant MMP-1, MMP-2, MMP-9, MMP-13, and MMP-14 were used in this assay. All enzymes were prepared in Assignee's laboratories following usual laboratory procedures. Protocols for the preparation and use of these enzymes are available in the scientific literature. See, e.g., Enzyme Nomenclature (Academic Press, San Diego, Calif., 1992) (and the citations therein). See also, Freije et al., “Molecular cloning and expression of collagenase-3, a novel human matrix metalloproteinase produced by breast carcinomas,” J Biol. Chem., 269(24), 16766-16773 (1994).
The MMP-13 was obtained as a proenzyme from a full-length cDNA clone using baculovirus, as described by V. A. Luckow, “Insect Cell Expression Technology,” Protein Engineering: Principles and Practice, pp. 183-218 (edited by J. L. Cleland et al., Wiley-Liss, Inc., 1996). The expressed proenzyme was first purified over a heparin agarose column, and then over a chelating zinc chloride column. The proenzyme was then activated by APMA for use in the assay. […] See also, O'Reilly et al, Baculovirus Expression Vectors: A Laboratory Manual (W.H. Freeman and Co., New York, N.Y., 1992). See also, King et al., The Baculovirus Expression System: A Laboratory Guide (Chapman & Hall, London, England, 1992).
(§3) All MMPs were activated using 4-aminophenylmercuric acetate (“APMA”, Sigma Chemical, St. Louis, Mo.) or trypsin. MMP-9 also was activated using human recombinant MMP-3 (purified in Assignee's laboratory following standard cloning and purification techniques).
(§4) Two fluorogenic, methoxycoumarin-containing polypeptide substrates were used in the MMP inhibition assays: [drawing 427] Here, “Dpa” is 3-(2,4-dinitrophenyl)-L-2,3-diaminopropionyl group, and “MCA” is 7-methoxycoumarin-4-yl acetyl. Substrate (I) was purchased from Baychem (Redwood City, Calif.), and substrate II was prepared Assignee's laboratory. Substrate I was used in the IC50 determination assays, while substrate II was used in the Ki determination assays. In the absence of MMP inhibitory activity, either substrate is cleaved at the Gly-Leu peptide bond. This cleavage separates the highly fluorogenic peptide from the 2,4-dinitrophenyl quencher, thus resulting in increase of fluorescent intensity.
(§5) The stock solutions of the assayed hydroxamic acids (or salts thereof) were prepared in 1% dimethyl sulfoxide (DMSO). These stock solutions were diluted in Buffer A (100 mM Tris-HCl, 100 mM NaCl, 10 mM CaCl2, 0.05% polyoxyethylene 23 lauryl ether, pH 7.5) to obtain solutions with different hydroxamic acid concentrations, i.e., assay solutions with different concentrations of the assayed MMP inhibitory compound. The experiment controls contained the same amount of Buffer A/DMSO as the assayed sample, but contained no hydroxamic acid (or salt thereof).
(§6) The assays from which the Ki determinations were made were performed as follows. The assayed hydroxamic acid samples were incubated in separate wells of untreated white polystyrene plates (Nunc Nalgene International, Rochester, N.Y.), and analyzed on a Tecan SpectraFlour Plus plate reader. The excitation wavelength was 330 nm, and the emission wavelength—420 nm. All samples (assayed hydroxamic acids and controls) were incubated in separate plate wells at room temperature for 1 hr in the presence of 4 μM of MMP substrate (II). In the absence of MMP inhibitory activity, substrate II was cleaved at the Gly-Leu bond resulting in an increase of relative fluorescence. Inhibition was observed as a reduced rate of this increase in relative fluorescence. The various hydroxamic acids were analyzed using a single low enzyme concentration with a single substrate concentration fixed at or below the Km.

[7] = target: T3, MMP-2; assay: as above; conditions: read-out: MMP-2 Ki
Method: as §1, §2
The MMP-2 proenzyme was purified by gelatin Sepharose chromatography from MMP-2-transfected p2AHT2 cells provided by Dr. Gregory Goldberg of Washington University (St. Louis, Mo.).
as §3, §4, §5
as §6, with “Km. This protocol is a modification of method by Knight et al., FEBS Lett., 296(3), 263-266 (1992). Apparent inhibitory constants were determined by non-linear regression of reaction velocity as a function of inhibitor and enzyme concentration using Morrison's equation, as described by Kuzmic, Anal. Biochem. 286, 45-50 (2000). […] Since the substrate concentration was chosen to be at or below the Km, the apparent Ki's from this analysis were reported as Ki's without correction for the influence of substrate.” for “Km.”

[8] = Table 9, read-out: MMP-1 Ki (IC-50)
[9] = Table 9, read-out: MMP-13 Ki (IC-50)
[10] = Table 9, read-out: MMP-2 Ki (IC-50)
[11] = Table 9, read-out: MMP-9 Ki (IC-50)
[12] = Table 9, read-out: MMP-14 Ki (IC-50)

T4 sequence (P14780 107-707 limits assumed): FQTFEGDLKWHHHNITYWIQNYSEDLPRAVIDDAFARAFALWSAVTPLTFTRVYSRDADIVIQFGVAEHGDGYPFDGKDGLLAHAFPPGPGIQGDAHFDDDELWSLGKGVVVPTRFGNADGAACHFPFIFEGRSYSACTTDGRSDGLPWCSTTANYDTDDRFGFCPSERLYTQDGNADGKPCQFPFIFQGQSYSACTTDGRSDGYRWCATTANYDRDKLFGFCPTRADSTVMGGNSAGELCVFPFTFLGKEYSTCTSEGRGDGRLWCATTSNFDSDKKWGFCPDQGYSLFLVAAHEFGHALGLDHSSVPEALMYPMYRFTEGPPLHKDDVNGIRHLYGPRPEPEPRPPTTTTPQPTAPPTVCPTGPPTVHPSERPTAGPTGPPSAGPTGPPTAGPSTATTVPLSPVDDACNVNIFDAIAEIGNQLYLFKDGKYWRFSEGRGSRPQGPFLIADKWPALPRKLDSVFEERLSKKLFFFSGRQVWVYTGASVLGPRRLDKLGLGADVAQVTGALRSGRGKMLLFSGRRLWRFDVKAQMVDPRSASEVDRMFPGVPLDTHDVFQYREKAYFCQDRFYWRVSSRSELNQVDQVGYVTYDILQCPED

Structure (SMILES): CN(C(=O)CCCC1CCN(S(=O)(=O)C2(C(=O)NO)CCOCC2)CC1)c1ccc(F)cc1 [Example A146]
- Ki [1, 8]: > 10000 nM
- Ki [2, 9]: 31.8 nM
- Ki [3, 10]: 344 nM
- Ki [4, 11]: 262 nM
- Ki [5, 12]: > 10000 nM

Structure (SMILES): CCCCCOCCC1CCN(S(=O)(=O)C2(C(=O)NO)CCOCC2)CC1 [Example A47, 4-[4-(2-pentyloxy-ethyl)-piperidine-1-sulfonyl]-tetrahydro-pyran-4-carboxylic Acid Hydroxyamide]
- Ki ([1]; Table 8, read-out: MMP-1 Ki): > 10000 nM
- Ki ([2]; Table 8, read-out: MMP-13 Ki): 12.7 nM
- Ki ([3]; Table 8, read-out: MMP-2 Ki): 18.6 nM
- Ki ([4]; Table 8, read-out: MMP-9 Ki): 10.2 nM
- Ki ([5]; Table 8, read-out: MMP-14 Ki): > 10000 nM

Structure (SMILES): O=C(NO)C1(S(=O)(=O)N2CCC(c3ccc(-n4ccnc4)cn3)CC2)CCOCC1 [Example A188]
- Ki [1, 8]: 3310 nM
- Ki [2, 9]: 3.89 nM
- Ki [3, 10]: 7.61 nM
- Ki [4, 11]: 54.7 nM
- Ki [5, 12]: 6200 nM

Structure (SMILES): CCC(CC)(C(=O)NO)S(=O)(=O)N1CCC(c2ccc(CCC(F)(F)C(F)(F)F)cn2)CC1 [Example A60, 2-ethyl-N-hydroxy-2-({4-[5-(3,3,4,4,4-pentafluorobutyl)pyridin-2-yl]piperidin-1-yl}sulfonyl)butanamide Hydrochloride]
- Ki ([1]; Table 8, read-out: MMP-1 Ki): 9180 nM
- Ki ([2]; Table 8, read-out: MMP-13 Ki): 0.4 nM
- Ki ([3]; Table 8, read-out: MMP-2 Ki): 1.23 nM
- Ki ([4]; Table 8, read-out: MMP-9 Ki): 0.63 nM
- Ki ([5]; Table 8, read-out: MMP-14 Ki): 6070 nM

Structure (SMILES): CN(Cc1ccco1)C(=O)CCCC1CCN(S(=O)(=O)C2(C(=O)NO)CCOCC2)CC1 [Example A141]
- Ki [1, 8]: 6900 nM
- Ki [2, 9]: 3.4 nM
- Ki [3, 10]: 219 nM
- Ki [4, 11]: 348 nM
- Ki [5, 12]: > 10000 nM

Structure (SMILES): CC(C)CCCCCOC1CCN(S(=O)(=O)C2(C(=O)NO)CCOCC2)CC1 [Example A36F]
- Ki ([1]; Table 8, read-out: MMP-1 Ki): > 10000 nM
- Ki ([2]; Table 8, read-out: MMP-13 Ki): 1.11 nM
- Ki ([3]; Table 8, read-out: MMP-2 Ki): 2.47 nM
- Ki ([4]; Table 8, read-out: MMP-9 Ki): 2.26 nM
- Ki ([5]; Table 8, read-out: MMP-14 Ki): 1900 nM

Structure (SMILES): O=C(NO)C1(S(=O)(=O)N2CCC(c3ccc(CCc4ccsc4)cn3)CC2)CCOCC1 [Example A95]
- Ki [1, 8]: 7630 nM
- Ki [2, 9]: 0.376 nM
- Ki [3, 10]: 2.13 nM
- Ki [4, 11]: 7.97 nM
- Ki [5, 12]: 2270 nM

Structure (SMILES): O=C(NO)C1(S(=O)(=O)N2CCC(c3ccc(CCC(F)(F)C(F)(F)F)cn3)CC2)CCN(C2CC2)CC1 [Example A204]
- Ki [1, 8]: > 10000 nM
- Ki [2, 9]: 0.23 nM
- Ki [3, 10]: 0.65 nM
- Ki [4, 11]: 0.29 nM
- Ki [5, 12]: 5100 nM

Structure (SMILES): CSCCOc1ccc(C2CCN(S(=O)(=O)C3(C(=O)NO)CCOCC3)CC2)nc1 [Example A191]
- Ki [1, 8]: 1710 nM
- Ki [2, 9]: 0.13 nM
- Ki [3, 10]: 0.31 nM
- Ki [4, 11]: 0.27 nM
- Ki [5, 12]: 470 nM

Structure (SMILES): COCCC(C(=O)NO)S(=O)(=O)N1CCC(c2ccc(CCC(F)(F)C(F)(F)F)cc2)CC1 (stereo not shown) [Example A66, N-hydroxy-4-methoxy-2-({4-[4-(3,3,4,4,4-pentafluorobutyl)phenyl]piperidin-1-yl}sulfonyl)butanamide]
- Ki ([1]; Table 8, read-out: MMP-1 Ki): > 10000 nM
- Ki ([2]; Table 8, read-out: MMP-13 Ki): 1.28 nM
- Ki ([3]; Table 8, read-out: MMP-2 Ki): 2.15 nM
- Ki ([4]; Table 8, read-out: MMP-9 Ki): 1.15 nM
- Ki ([5]; Table 8, read-out: MMP-14 Ki): 9640 nM

Structure (SMILES): O=C(NCCCCC1CCN(S(=O)(=O)C2(C(=O)NO)CCOCC2)CC1)C1(c2ccccc2)CC1 [Example A115]
- Ki [1, 8]: > 10000 nM
- Ki [2, 9]: 0.81 nM
- Ki [3, 10]: 98.5 nM
- Ki [4, 11]: 1350 nM
- Ki [5, 12]: > 10000 nM

Structure (SMILES): COC(=O)CCCCC1CCN(S(=O)(=O)C2(C(=O)NO)CCOCC2)CC1 [Example A103]
- Ki [1, 8]: 363 nM
- Ki [2, 9]: 1.08 nM
- Ki [3, 10]: 3.84 nM
- Ki [4, 11]: 3.39 nM
- Ki [5, 12]: 2880 nM

Structure (SMILES): CCC(F)(F)c1ccc(C2CCN(S(=O)(=O)C3(C(=O)NO)CCOCC3)CC2)nc1 [Example A129]
- Ki [1, 8]: 650 nM
- Ki [2, 9]: 2.81 nM
- Ki [3, 10]: 2.96 nM
- Ki [4, 11]: 10.8 nM
- Ki [5, 12]: 4540 nM

Structure (SMILES): O=C(NO)C1(S(=O)(=O)N2CCC(N3CCN(c4ccc(F)cc4)CC3)CC2)CCOCC1 [Example A197]
- Ki [1, 8]: > 10000 nM
- Ki [3, 10]: 770 nM
- Ki [4, 11]: 1620 nM
- Ki [5, 12]: > 10000 nM

Structure (SMILES): Cc1cccc(-c2csc(N3CCN(S(=O)(=O)C4(C(=O)NO)CCOCC4)CC3)n2)c1 [Example 414]
- Ki ([6]; value outside parentheses): 4190 nM
- Ki ([7]; value outside parentheses): 2660 nM

Structure (SMILES): CCc1ccc(N2CCN(S(=O)(=O)C3(C(=O)NO)CCOCC3)CC2)nc1 [Example 137]
- Ki ([6]; value not in parenthesis): 0.75 nM
- Ki ([7]; value not in parenthesis): 0.37 nM
